Data as given in patent publication US10874682B2, “Compositions and the use thereof for treating or preventing rosacea” (NESTLÉ SKIN HEALTH SA, priority 2016, dated 2020).

Tested on: arachidonic acid-induced ear edema
Experiment: Arachidonic acid-induced mouse ear edema test, single topical application
Type: in vivo, Balb/c mice
Design: Mean ear edema: unit not given here
Conditions: indomethacin 5%, ivermectin 1%, diclofenac 1%; for Mean ear edema: single topical application on right ear with AA 4%; for Inhibition vs AA 4%: single topical application with AA 4%
Experimental: Example 1: Evaluation of the Anti-Inflammatory Activity of Ivermectin and Diclofenac after a Single Topical Application in the Arachidonic Acid-Induced Mouse Ear Edema Test on Balb/c Mice
Arachidonic acid is dissolved in a mixture of THF/Methanol at 4%.
Tested compounds were dissolved in arachidonic acid solution, at final concentration.
20 μl of the tested compound is dissolved in arachidonic acid solution and applied on the internal side of the right ear.
The ear thickness is measured at T=0 h, T+1 h, T+2 h, T+4 h.
THF/Methanol is used as vehicle control.
Indomethacin 5% is used as positive control and arachidonic acid at 4% in THF/Methanol is used as inductor of inflammation.

[1] = ear thickness measurement after 1 h
[2] = ear thickness measurement after 2 h
[3] = ear thickness measurement after 4 h

## COc1ccc2c(c1)c(CC(=O)O)c(C)n2C(=O)c1ccc(Cl)cc1 [indomethacin]
1 h measurement
  Mean ear edema: 1
  Inhibition vs AA 4%: 94.7
2 h measurement
  Mean ear edema: 1
  Inhibition vs AA 4%: 93.8
4 h measurement
  Mean ear edema: 1
  Inhibition vs AA 4%: 92.5
[1]
  inhibition of the ear edema caused by arachidonic acid: 95%
[2]
  inhibition of the ear edema caused by arachidonic acid: 94%
[3]
  inhibition of the ear edema caused by arachidonic acid: 92.5%

## CCCCC/C=C\C/C=C\C/C=C\C/C=C\CCCC(=O)O [Arachidonic acid (AA), Arachidonic acid]
1 h measurement
  Mean ear edema: 18.8
2 h measurement
  Mean ear edema: 16.2
4 h measurement
  Mean ear edema: 13.4

## ivermectin
1 h measurement
  Mean ear edema: 8.2
  Inhibition vs AA 4%: 56.4
2 h measurement
  Mean ear edema: 8.6
  Inhibition vs AA 4%: 46.9
4 h measurement
  Mean ear edema: 6.2
  Inhibition vs AA 4%: 53.7
[1]
  inhibition of the ear edema caused by arachidonic acid: 56%
[2]
  inhibition of the ear edema caused by arachidonic acid: 47%
[3]
  inhibition of the ear edema caused by arachidonic acid: 54%

## O=C(O)Cc1ccccc1Nc1c(Cl)cccc1Cl [diclofenac, 2-(2-(2,6-dichlorophenylamino)phenyl)acetic acid]
1 h measurement
  Mean ear edema: 6
  Inhibition vs AA 4%: 68.1
2 h measurement
  Mean ear edema: 4
  Inhibition vs AA 4%: 75.3
4 h measurement
  Mean ear edema: 3
  Inhibition vs AA 4%: 77.6
[1]
  inhibition of the ear edema caused by arachidonic acid: 68%
[2]
  inhibition of the ear edema caused by arachidonic acid: 75%
[3]
  inhibition of the ear edema caused by arachidonic acid: 78%
